Source: ChEMBL document CHEMBL3804753, “Substituted quinolines as noncovalent proteasome inhibitors” (Bioorg Med Chem, 2016)
Calls of active or inactive are those of the source. The calls are words filed in the database; no cut-off is given here.

Biological target: T1, Proteasome Macropain subunit MB1 (Homo sapiens) (UniProt P28074)
T1 sequence (whole entry): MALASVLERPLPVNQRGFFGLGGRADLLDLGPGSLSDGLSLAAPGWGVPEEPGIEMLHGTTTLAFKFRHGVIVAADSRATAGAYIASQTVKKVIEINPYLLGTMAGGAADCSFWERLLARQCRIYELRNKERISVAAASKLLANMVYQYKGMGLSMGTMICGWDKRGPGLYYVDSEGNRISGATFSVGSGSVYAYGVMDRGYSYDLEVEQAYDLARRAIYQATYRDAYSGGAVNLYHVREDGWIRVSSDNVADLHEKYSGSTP
Experiment: Inhibition of human 20S proteasome chymotryptic-like activity using Suc-LLVY-AMC as substrate assessed as fluorescence quinching control by fluorescence assay

inhibition: inactive
SMILES: Cc1cc(C)c2cc(-c3ccccc3)c(-c3ccccc3)nc2c1
